From PubChem BioAssay (NCI) come the findings set out here.

“And” between values parts separate entries of the source, which are not always exact repeats. Equal values may be shown once.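 Five concentrations, 48 hours, 96-well plates. At the GI50, growth is halved. Definition used: TGI = concentration required for complete inhibition of growth.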

Among the test systems are OVCAR-8 ovarian; UACC-62 melanoma; CAKI-1 renal; UACC-257 melanoma; SK-MEL-2 melanoma; SF-268 CNS; K-562 leukemia; HCT-15 colon; LOX IMVI melanoma; CCRF-CEM leukemia.
Common to all, as to assay: inhibition of tumour cell growth, NCI panel, 48 h

Regarding `[Mn+3].[O-][Cl+3]([O-])([O-])O.[O-]c1ccccc1C=NCCN1CC1.[O-]c1ccccc1C=NCCN1CC1`, the GI50 in the assay with OVCAR-8 ovarian was 17.8 µM; in the assay on UACC-62 melanoma, 16.6 µM; in the assay on CAKI-1 renal, 28.8 µM; with UACC-257 melanoma, 18.1 µM; in the assay with SK-MEL-2 melanoma it was 48.5 µM; in the assay with SF-268 CNS it was 15.9 µM. For the same compound, the GI50 was 20.5 µM in the assay on K-562 leukemia and 4.15 µM in the assay with HCT-15 colon. Further, the TGI in the assay on OVCAR-8 ovarian is above 100 µM; with UACC-62 melanoma, 33.6 µM; with CAKI-1 renal, 68.1 µM; with UACC-257 melanoma it was 46.2 µM; with SK-MEL-2 melanoma, above 100 µM; in the assay on SF-268 CNS, above 100 µM. For the same compound, the TGI in the assay on K-562 leukemia is 42.4 µM; in the assay with HCT-15 colon, 18.3 µM.
Take `O=C1/C(=C/c2ccc(Cl)cc2)N=C(c2ccccc2)N1c1cc(C(F)(F)F)ccc1Cl`: the GI50 in the assay on OVCAR-8 ovarian is 28.6 µM; in the assay with UACC-62 melanoma, 14 µM; in the assay on CAKI-1 renal it was 31 µM; in the assay with UACC-257 melanoma it was 26.9 µM; in the assay on SK-MEL-2 melanoma, 17.5 µM; in the assay with SF-268 CNS, 28.8 µM. Besides, the GI50 in the assay on K-562 leukemia was 20.1 µM; with HCT-15 colon, 18.9 µM; in the assay on LOX IMVI melanoma, 16.5 µM. Further, the TGI is above 100 µM in the assay on OVCAR-8 ovarian; 44.9 µM in the assay with UACC-62 melanoma; 69.5 µM with CAKI-1 renal; 99.6 µM in the assay with UACC-257 melanoma; 45.4 µM in the assay on SK-MEL-2 melanoma; above 100 µM in the assay on SF-268 CNS. For the same compound, the TGI with K-562 leukemia is 79.9 µM; in the assay on HCT-15 colon it was 86.6 µM; in the assay with LOX IMVI melanoma, 41.2 µM.
Regarding `COc1ccc(-c2c(NC(=O)Nc3ccc(Cl)c(C(F)(F)F)c3)cnn2-c2ccc(S(N)(=O)=O)cc2)cc1`, the GI50 with OVCAR-8 ovarian was 3.39 µM; with UACC-62 melanoma, 2.07 µM; in the assay on CCRF-CEM leukemia, 3 µM; in the assay on UACC-257 melanoma it was 3.29 µM; in the assay on SK-MEL-2 melanoma, 2.42 µM; in the assay on SF-268 CNS it was 3.34 µM. In addition, the figures for the GI50 in the assay on K-562 leukemia, in the assay on HCT-15 colon and in the assay with LOX IMVI melanoma were 3.13 µM, 3.63 µM and 2.75 µM, respectively. Further, the TGI came to 13 µM in the assay with OVCAR-8 ovarian; 4.47 µM in the assay with UACC-62 melanoma; 11.3 µM with CCRF-CEM leukemia; 12 µM in the assay on UACC-257 melanoma; 5.52 µM in the assay with SK-MEL-2 melanoma; 14.7 µM with SF-268 CNS. The TGI with K-562 leukemia amounted to 16.9 µM; with HCT-15 colon, 14.4 µM; with LOX IMVI melanoma, 8.36 µM.
`CC(C)(C)c1cc[n+](C[n+]2ccc(C(C)(C)C)cc2)cc1`: the TGI in the assay with OVCAR-8 ovarian, in the assay on UACC-62 melanoma, with CAKI-1 renal, in the assay with CCRF-CEM leukemia, with SK-MEL-2 melanoma and with SF-268 CNS was above 100 µM each time. Also, the TGI in the assay with K-562 leukemia and with HCT-15 colon was above 100 µM throughout.
For the compound `Oc1cccc2cccnc12`, the GI50 in the assay on OVCAR-8 ovarian is 3.39 µM and 14.6 µM and 2.67 µM; in the assay on SK-MEL-2 melanoma, > 20.7 µM and 8.34 µM; in the assay with SF-268 CNS it was 4.04 µM and 32.7 µM and 3.29 µM; with HCT-15 colon, 2.04 µM and 5.51 µM and 2.52 µM; with LOX IMVI melanoma, 1.65 µM and 0.709 µM and 2.29 µM. In addition, the TGI with OVCAR-8 ovarian was above 100 µM; with UACC-62 melanoma, 26.8 µM and > 100 µM; with CAKI-1 renal, above 100 µM; with UACC-257 melanoma, 27.3 µM and > 100 µM and > 27.8 µM; in the assay with SK-MEL-2 melanoma, above 74.5 µM; with SF-268 CNS, above 100 µM. For the same compound, the TGI with K-562 leukemia is 21.7 µM and > 100 µM and > 23.3 µM; in the assay on HCT-15 colon, above 100 µM; with LOX IMVI melanoma, 14.8 µM and > 100 µM.
`C/C(=N\NC(=O)c1ccccc1O)c1c(O)cc(C)oc1=O`: the TGI in the assay on OVCAR-8 ovarian, with UACC-62 melanoma, with UACC-257 melanoma, in the assay on SK-MEL-2 melanoma, in the assay with SF-268 CNS and with K-562 leukemia was above 100 µM in each case. Also, the TGI with HCT-15 colon and in the assay with LOX IMVI melanoma was above 100 µM each time.
Take `COC(=O)[C@@H](C)C[C@H](Cc1ccc(F)cc1)NC(=O)c1csc([C@@H](C[C@H](C(C)C)N(C)C(=O)[C@@H](NC(=O)[C@H]2CCCCN2C)C2CC2)OC(C)=O)n1`: the GI50 with OVCAR-8 ovarian was 0.537 µM; in the assay with UACC-62 melanoma it was 0.137 µM; with CCRF-CEM leukemia, 0.153 µM; in the assay on UACC-257 melanoma it was above 15.5 µM; in the assay on SK-MEL-2 melanoma, 0.169 µM; in the assay on SF-268 CNS, 1.16 µM. Also, the GI50 in the assay on K-562 leukemia was 0.0605 µM; in the assay on HCT-15 colon, 0.828 µM; in the assay with LOX IMVI melanoma, 0.272 µM. For the same compound, the TGI in the assay with OVCAR-8 ovarian, with UACC-62 melanoma, with CCRF-CEM leukemia, in the assay on UACC-257 melanoma, with SK-MEL-2 melanoma and in the assay with SF-268 CNS was above 25 µM throughout. Further, the TGI in the assay on K-562 leukemia, in the assay with HCT-15 colon and with LOX IMVI melanoma was above 25 µM throughout.
With `Cn1c(=O)nc2n(-c3ccc(F)c(F)c3)c3ccccc3nc-2c1=O`, the TGI in the assay on OVCAR-8 ovarian is 68.1 µM; with UACC-62 melanoma, 5.47 µM; in the assay on CAKI-1 renal, above 100 µM; in the assay with CCRF-CEM leukemia, 42.2 µM; with UACC-257 melanoma, 20.1 µM; with SK-MEL-2 melanoma, 55.3 µM. The TGI in the assay with SF-268 CNS is above 100 µM; with K-562 leukemia, 41.2 µM; in the assay on HCT-15 colon, 20.4 µM.
As to `COc1ccc(C2=NN(C(C)=O)c3nc4ccccc4nc3O2)cc1`, the TGI in the assay on OVCAR-8 ovarian, in the assay on UACC-62 melanoma, in the assay with CCRF-CEM leukemia, in the assay on UACC-257 melanoma, in the assay on SK-MEL-2 melanoma and in the assay with SF-268 CNS was above 100 µM in each case. Further, the TGI with K-562 leukemia and in the assay on HCT-15 colon was above 100 µM throughout.
Turning to `COc1ccc(OC)c(-c2cc(-c3ccc(Cl)cc3)nn2-c2ccccc2)c1`, the GI50 was 24.4 µM in the assay on OVCAR-8 ovarian; 11.2 µM with UACC-62 melanoma; 24.2 µM with CAKI-1 renal; 8.57 µM in the assay on CCRF-CEM leukemia; 6.45 µM in the assay on UACC-257 melanoma; above 100 µM in the assay on SK-MEL-2 melanoma. For the same compound, the results for the GI50 in the assay with SF-268 CNS, in the assay with K-562 leukemia and in the assay with HCT-15 colon were 18.2 µM, 5.89 µM and 34.2 µM, respectively. For the same compound, the TGI in the assay on OVCAR-8 ovarian was 93.9 µM; in the assay on UACC-62 melanoma it was 55.3 µM; in the assay on CAKI-1 renal, 66.9 µM; in the assay with CCRF-CEM leukemia, above 100 µM; with UACC-257 melanoma it was 49.1 µM; in the assay with SK-MEL-2 melanoma, above 100 µM. Besides, the TGI was 57.8 µM in the assay on SF-268 CNS, 42.4 µM with K-562 leukemia and above 100 µM in the assay on HCT-15 colon.
